The values that follow come from patent EP4715056A1, “BIO-BASED TRANS-ACONITATE, PREPARATION METHOD THEREFOR AND USE THEREOF” (Qingdao Institute of Bioenergy and Bioprocess Technology, …, priority 2023, dated 2024).

Where a name gives a salt, the structure may show the parent alone. Read-outs that look alike come from different tables or passages of the source.

Data set [1] can be described thus: Hardness (Shore hardness tester, GB/T 531-2008). The class given is physicochemical. Conditions: composite: 100 parts PVC resin (K value 60, polydispersity index 4), 30 parts plasticizer, 2 parts oxidized polyethylene wax, 5 parts octyltin maleate.
Data set [2] is described as follows: Compatibility (water value method). In kind it is physicochemical. Conditions: water value of the plasticizer, Table 9.
A short description of data set [3]: Volatility loss rate (activated carbon method, HG/T 4458-2012). The class given is physicochemical. Conditions: PVC composite with 30 parts plasticizer; 70°C for 24 h. As to the method:
(§1) The above plasticizer is the mixed aconitates prepared in Example 37, and composite materials are prepared according to the above weight ratio and preparation method respectively. At the same time, dioctyl phthalate, tributyl citrate, tributyl aconitate and triisooctyl aconitate are respectively selected as plasticizers to prepare composite materials according to the above weight ratio and preparation method. The test method is the same as that in Test 2 except for the following: • 1. Volatility loss rate: tests were performed in accordance with HG/T 4458-2012 Plastics - Determination of Plasticizer Loss by Activated Carbon Method at a test temperature of 70°C for 24 h. • 2. Water extraction rate: tests were performed in accordance with the standard ISO 175-2011 Test Method for Determination of Immersion Effects of Plastics in Liquid Chemicals at room temperature for 72 h, with deionized water as the extraction solvent. • 3. Ethanol extraction rate: tests were performed in accordance with the standard ISO 175-2011 Test Method for Determination of Immersion Effects of Plastics in Liquid Chemicals at room temperature for 72 h, with ethanol as the extraction solvent. • 4. Petroleum ether extraction rate: tests were performed in accordance with the standard ISO 175-2011 Test Method for Determination of Immersion Effects of Plastics in Liquid Chemicals at room temperature for 72 h, with petroleum ether as the extraction solvent. • 5. Migration rate: tests were performed in accordance with HG/T 4458-2012 Determination of Plasticizer Migration in Plastics at a test temperature of 50°C for 48 h. The materials of absorbent sheets are polyethylene (PE) without additives and standard natural rubber (NR).

Data set [4] can be described thus: Water extraction rate (ISO 175-2011). The class given is physicochemical. Particulars: PVC composite with 30 parts plasticizer; room temperature, 72 h, deionized water. As to the method:
as §1

Data set [5] in a line: Ethanol extraction rate (ISO 175-2011). In kind it is physicochemical. Conditions: PVC composite with 30 parts plasticizer, room temperature, 72 h. The protocol:
as §1

Data set [6] in a line: Petroleum ether extraction rate (ISO 175-2011). The class given is physicochemical. Conditions: PVC composite with 30 parts plasticizer, room temperature, 72 h. The protocol:
as §1

Data set [7] in a line: Plasticizer migration rate to PE (HG/T 4458-2012). The class given is physicochemical. Conditions: PVC composite with 30 parts plasticizer; 50°C for 48 h. As to the method:
as §1

Data set [8] can be described thus: Plasticizer migration rate to NR (HG/T 4458-2012). The class given is physicochemical. Conditions: PVC composite with 30 parts plasticizer; 50°C for 48 h. The protocol:
as §1

Data set [9] is described as follows: Tensile properties (GB/T 1040-2006): tensile modulus at 100%, elongation at break, elastic modulus. In kind it is physicochemical. Particulars: PVC composite with 30 parts plasticizer, Table 9.
Data set [10] is described as follows: Glass transition temperature (dynamic mechanical analyzer). In kind it is physicochemical. Particulars: PVC composite with 30 parts plasticizer, Table 10.
The subject of data set [11] is Aspergillus terreus engineered strains. In kind it is cell-based. Conditions: 96 hours of shake flask fermentation. As to the method: Additional supplementation experiments were performed on differential amino acids and vitamins between high-yield and low-yield corn steep liquor powders. Based on the high-yield corn steep liquor powder medium, fermentation verification was performed by adding differential amino acid components and vitamin components separately. Each group was set up with three parallel replicates. After 96 hours of shake flask fermentation, the supernatant of the fermentation broth was collected for quantitative analysis using HPLC detection.

For data set [12] the test system is unchanged. The class given is cell-based. Particulars: 30 L fermenter. As to the method:
Meanwhile, the medium without added amino acids was used as a control to compare the fermentation yields. […] The primary and secondary seed media were: 150 g/L glucose monohydrate, 4 g/L ammonium sulfate, 2 g/L corn steep liquor powder, 0.4 g/L magnesium sulfate heptahydrate, 0.06 g/L ferrous sulfate heptahydrate, 0.01 g/L diammonium hydrogen phosphate, 40 mg/L zinc sulfate, 40 mg/L copper sulfate, and 0.5 g/L sodium chloride; no L-Trp or L-Met was added to the primary and secondary media. The tertiary fermentation medium was the same as the secondary seed medium, but L-Trp or L-Met was added. The control parameters of the 30 L fermenter were as follows: 300 to 480 rpm, dissolved oxygen (DO) level maintained at 25% to 29%, aeration rate at 20 L/min; DO control was linked during agitation. The control parameters of the 100 L fermenter were as follows: 250 to 280 rpm, DO controlled from 25 to 30% during agitation linkage, and aeration rate controlled f […].

The subject of data set [13] is Aspergillus niger engineered strains. Conditions: shake flask, addition amount 0.12 g/L. The protocol:
Nutritional factor optimization experiments were performed on the trans-Aconitic acid-producing Aspergillus niger engineered strains constructed in Example 1. Amino acid components were added for fermentation verification using the high-yield corn steep liquor powder medium as the basis.

Data set [14] has the same test system. Conditions: 30 L fermenter, after 132 h of fermentation. As to the method:
Fermentation was performed in a 30 L fermenter using the medium added with L-methionine. The control parameters were as follows: 300 to 480 rpm, DO level maintained at 25 to 29%, and aeration rate controlled at 20 L/min.

As to `CCCCCCCCOC(=O)c1ccccc1C(=O)OCCCCCCCC` [Dioctyl Phthalate, dioctyl phthalate], the “Hardness/Shore D” value in [1] is on record as 78 Shore D. Moreover, the Compatibility in data set [2] is 7.1 mL. Also, in data set [3], the Volatility loss rate is listed as 0.96%. The compound also returned a Water extraction rate in data set [4] of 0.32%. For the same compound, the Ethanol extraction rate in data set [5] is on record as 5.13%. The “Petroleum ether extraction rate” value in data set [6] is recorded as 6.12%. The “Migration rate to PE” value in data set [7] amounted to 0.83%. The “Migration rate to NR” value in [8] stood at 0.81%. Moreover, in data set [9], the Elastic modulus was 487.3 MPa, the Elongation at break is reported as 134.9% and the “Tensile modulus at 100%” value was determined as 15.1 MPa. Besides, the Tg in data set [10] stood at 48.5 °C.

Consider `CSCC[C@H](N)C(=O)O` [L-methionine], for which the “increase of the yield of trans-Aconitic acid” value in [11] (addition of 0.115 g/L) is listed as 86.5%. The “final fermentation yield of trans-Aconitic acid” value in [12] (0.115 g/L added (26 g/L without adding amino acid)) is given as 65 g/L. In addition, the “yield of the recombinant engineered strains” value in data set [13] stood at 31.76 g/L. This compound also came in with a TAA yield in data set [14] of 60 g/L.

In the case of `N[C@@H](Cc1c[nH]c2ccccc12)C(=O)O` [L-tryptophan], the “increase of the yield of trans-Aconitic acid” value is on record as 46.2% in data set [11] (addition of 0.099 g/L) and 20.7% in data set [11] (addition of 0.2 g/L). In addition, in data set [12] (0.099 g/L added, at 60 h (26 g/L without adding amino acid)), the “yield of trans-Aconitic acid” value is given as 41.95 g/L.

Take `CCCCOC(=O)C=C(CC(=O)OCCCC)C(=O)OCCCC` [Tributyl aconitate, tributyl aconitate]: in data set [1], the “Hardness/Shore D” value was found to be 45 Shore D. For the same compound, in data set [2], the Compatibility is recorded as 16.7 mL. Moreover, the Volatility loss rate in [3] is reported as 1.08%. The Water extraction rate in [4] turned out to be 0.36%. Moreover, the Ethanol extraction rate in [5] stood at 3.71%. The “Petroleum ether extraction rate” value in data set [6] was determined as 6.03%. In addition, the “Migration rate to PE” value in [7] was 1.26%. Also, the “Migration rate to NR” value in [8] was determined as 1.31%. For the same compound, in data set [9], the Elastic modulus is on record as 130.5 MPa, the Elongation at break turned out to be 257.4% and the “Tensile modulus at 100%” value was 8.2 MPa. In addition, the Tg in [10] came to 28.1 °C.

`CCCCOC(=O)CC(O)(CC(=O)OCCCC)C(=O)OCCCC` [Tributyl citrate, tributyl citrate]: the “Hardness/Shore D” value in [1] came out at 77 Shore D. Also, in [2], the Compatibility worked out at 14.3 mL. The Volatility loss rate in [3] stood at 3.87%. In data set [4], this compound returned a Water extraction rate of 1.16%. This compound returned an Ethanol extraction rate in data set [5] of 4.96%. For the same compound, the “Petroleum ether extraction rate” value in data set [6] is 8.91%. Besides, the “Migration rate to PE” value in [7] is listed as 2.12%. For the same compound, in data set [8], the “Migration rate to NR” value was 2.71%. In addition, in [9], the Elastic modulus is 426.5 MPa, the Elongation at break is listed as 146.3% and the “Tensile modulus at 100%” value is reported as 13.6 MPa. The Tg in [10] was 38.3 °C.

For `CC(C)CCCCCOC(=O)C=C(CC(=O)OCCCCCC(C)C)C(=O)OCCCCCC(C)C` [Triisooctyl aconitate, triisooctyl aconitate], the “Hardness/Shore D” value in data set [1] is given as 71 Shore D. Further, in data set [2], the Compatibility came to 10.9 mL. The Volatility loss rate in data set [3] came out at 0.38%. The Water extraction rate in data set [4] amounted to 0.14%. This compound gave an Ethanol extraction rate in [5] of 14.52%. In addition, the “Petroleum ether extraction rate” value in data set [6] came out at 16.44%. The “Migration rate to PE” value in data set [7] is listed as 0.13%. Besides, in [8], the “Migration rate to NR” value was determined as 0.18%. Further, in data set [9], the Elastic modulus is reported as 397.1 MPa, the Elongation at break was found to be 156.3% and the “Tensile modulus at 100%” value stood at 16.1 MPa. In data set [10], this compound yielded a Tg of 43.5 °C.
